The results in this text go back to ChEMBL document CHEMBL1140979, “Synthesis and antiamoebic activity of metronidazole thiosemicarbazone analogues” (Eur J Med Chem, 2008).

SMILES strings stand for the structures.

For this assay, the system named is Entamoeba histolytica. Nature of the assay: Antiamoebic activity against Entamoeba histolytica HM1:IMSS after 72 hrs by microdilution method. It is filed as functional, organism-based.
`Cc1ccc(NC(=S)N/N=C/c2ccc(/C=C/c3ncc([N+](=O)[O-])n3CCO)cc2)cc1` displayed an IC50 of 560 nM.
`O=[N+]([O-])c1cnc(/C=C/c2ccc(/C=N/NC(=S)N3CCCCCC3)cc2)n1CCO` had an IC50 of 1620 nM.
With `CC1CCN(C(=S)N/N=C/c2ccc(/C=C/c3ncc([N+](=O)[O-])n3CCO)cc2)CC1` the figure was 1130 nM.
With `O=[N+]([O-])c1cnc(/C=C/c2ccc(/C=N/NC(=S)N3CCCc4ccccc43)cc2)n1CCO`, the IC50 came out at 1180 nM.
For the molecule `O=[N+]([O-])c1cnc(/C=C/c2ccc(/C=N/NC(=S)N3CCC(c4ccccc4)CC3)cc2)n1CCO`, the IC50 was determined as 1250 nM.
With `CN(Cc1ccccc1)C(=S)N/N=C/c1ccc(/C=C/c2ncc([N+](=O)[O-])n2CCO)cc1` the figure was 2340 nM; with `O=[N+]([O-])c1cnc(/C=C/c2ccc(/C=N/NC(=S)NC3CCCCC3)cc2)n1CCO`, 1500 nM.
For `O=[N+]([O-])c1cnc(/C=C/c2ccc(/C=N/NC(=S)N3CCCC3)cc2)n1CCO`, it took 1920 nM to reach half-maximal inhibition (IC50).
In the case of `O=[N+]([O-])c1cnc(/C=C/c2ccc(/C=N/NC(=S)NCc3ccccc3Cl)cc2)n1CCO`, the IC50 was found to be 3670 nM.
`Cc1ccccc1NC(=S)N/N=C/c1ccc(/C=C/c2ncc([N+](=O)[O-])n2CCO)cc1`: the IC50 was 1570 nM.
In turn, `O=[N+]([O-])c1cnc(/C=C/c2ccc(/C=N/NC(=S)NC3CCCCCCC3)cc2)n1CCO` returned an IC50 of 800 nM.
